Test results as given in patent US20200102295A1, “NITROCATECHOL DERIVATIVES AS COMT INHIBITORS” (BIAL - PORTELA & CA, S.A., priority 2005, published 2020).

Assays:
mouse liver COMT = target: T1, mouse liver COMT (Mus musculus, UniProt O88587); experiment: Mouse liver COMT activity after oral administration of test compounds; assay type: in vivo; conditions: 3 mg/kg oral, 3 h after administration
T1 construct: Aliquots of 0.5 ml of liver homogenates were preincubated; from tissue; host or cells: mouse liver homogenate (NMRI mice, dosed orally; ex vivo activity)
T1 sequence (O88587 1-265): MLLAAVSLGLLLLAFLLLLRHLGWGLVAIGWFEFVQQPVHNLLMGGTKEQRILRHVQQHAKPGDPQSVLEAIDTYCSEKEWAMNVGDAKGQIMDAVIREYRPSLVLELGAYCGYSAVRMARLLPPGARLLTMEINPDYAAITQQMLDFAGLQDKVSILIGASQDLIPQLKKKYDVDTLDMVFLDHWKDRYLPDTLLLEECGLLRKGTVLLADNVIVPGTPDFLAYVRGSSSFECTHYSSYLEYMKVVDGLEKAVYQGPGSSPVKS

[1] = system: Neuro 2A mouse neuroblastoma cells; experiment: Cell toxicity: Neuro 2A cell viability (calcein-AM); assay type: cell-based; conditions: Neuro 2A cells, 30 μM, 24 h exposure

| Compound | COMT activity (% of control) (mouse liver COMT) | % of viable cells [1] |
| --- | --- | --- |
| CSc1cc(-c2noc(-c3cc(O)c(O)c([N+](=O)[O-])c3)n2)cc[n+]1[O-] [Compound 17, 5-[3-(2-Methylsulfanyl-1-oxy-pyridine-4-yl)-[1,2,4]oxadiazol-5-yl]-3-nitro-benzene-1,2-diol] | 89.9 % of control | 96.0% |
| O=[N+]([O-])c1cc(-c2nc(-c3cc(Br)c[n+]([O-])c3)no2)cc(O)c1O [Compound 19, 5-[3-(5-Bromo-1-oxy-pyridin-3-yl)-[1,2,4]oxadiazol-5-yl]-3-nitro-benzene-1,2-diol] | 45.2 % of control | 100.1% |
| O=[N+]([O-])c1cc(-c2nc(-c3ccc(Cl)[n+]([O-])c3)no2)cc(O)c1O [Compound 23, 5-[3-(6-Chloro-1-oxy-pyridin-3-yl)-[1,2,4]oxadiazol-5-yl]-3-nitro-benzene-1,2-diol] | 43 % of control | 41.1% |
| O=[N+]([O-])c1cc(-c2nc(-c3ccc[n+]([O-])c3Cl)no2)cc(O)c1O [Compound 24, 5-[3-(2-Chloro-1-oxy-pyridin-3-yl)-[1,2,4]oxadiazol-5-yl]-3-nitro-benzene-1,2-diol] | 71.8 % of control | 93.7% |
| Cc1ccc(-c2noc(-c3cc(O)c(O)c([N+](=O)[O-])c3)n2)c(Cl)[n+]1[O-] [Compound 25, 5-[3-(2-Chloro-6-methyl-1-oxy-pyridin-3-yl)-[1,2,4]oxadiazol-5-yl]-3-nitro-benzene-1,2-diol] | 23.1 % of control | 100.2% |
| O=[N+]([O-])c1cc(-c2nc(-c3ccc[n+]([O-])c3N3CCOCC3)no2)cc(O)c1O [Compound 26, 5-[3-(2-Morpholin-4-yl-1-oxy-pyridin-3-yl)-[1,2,4]oxadiazol-5-yl]-3-nitro-benzene-1,2-diol] | 35.5 % of control | 110.9% |
| CSc1ccc(-c2noc(-c3cc(O)c(O)c([N+](=O)[O-])c3)n2)c[n+]1[O-] [Compound 27, 5-[3-(6-Methylsulfanyl-1-oxy-pyridin-3-yl)-[1,2,4]oxadiazol-5-yl]-3-nitro-benzene-1,2-diol] | 47.5 % of control | 95.7% |
| O=[N+]([O-])c1cc(-c2nc(-c3ccc(C(F)(F)F)[n+]([O-])c3)no2)cc(O)c1O [Compound 28, 3-Nitro-5-[3-(1-oxy-6-trifluoromethyl-pyridin-3-yl)-[1,2,4]oxadiazol-5-yl]-benzene-1,2-diol] | 11.3 % of control | 87.0% |
| Cc1cc(C(F)(F)F)c(-c2noc(-c3cc(O)c(O)c([N+](=O)[O-])c3)n2)c(C)[n+]1[O-] [Compound 31, 5-[3-(2,6-Dimethyl-1-oxy-4-trifluoromethyl-pyridin-3-yl)-[1,2,4]oxadiazol-5-yl]-3-nitro-benzene-1,2-diol] | 0.8 % of control | 37.2% |
| Cc1c(-c2noc(-c3cc(O)c(O)c([N+](=O)[O-])c3)n2)c(C(F)(F)F)cc(-c2ccccc2)[n+]1[O-] [Compound 32, 5-[3-(2-Methyl-1-oxy-6-phenyl-4-trifluoromethyl-pyridin-3-yl)-[1,2,4]oxadiazol-5-yl]-3-nitro-benzene-1,2-diol] | 9.7 % of control | 26.6% |
| Cc1cc(C(F)(F)F)c(-c2noc(-c3cc(O)c(O)c([N+](=O)[O-])c3)n2)c(-c2ccccc2)[n+]1[O-] [Compound 33, 5-[3-(6-Methyl-1-oxy-2-phenyl-4-trifluoromethyl-pyridin-3-yl)-[1,2,4]oxadiazol-5-yl]-3-nitro-benzene-1,2-diol] | 39.8 % of control | 45.0% |
